Reference: patent US10174202B2, “Dyes with phosphinic acid, phosphinate, phosphonate and phosphonamidate substituents as auxochromic groups and methods for preparing the same” (Max-Planck-Gesellschaft zur Foerderung der Wissenschaften …, priority 2017, dated 2019)
Where “and” joins values, the source holds several entries; their conditions need not be identical. Identical values can stand only once. Counter-ions that a name gives are not always drawn. Marks after values point to notes of the source that are not given here.

Experiments:
[1] = Absorption spectroscopy (UV/Vis); format: physicochemical
Description: (§1) Absorption spectra were recorded with a Varian Cary 4000 UV-Vis double-beam spectrophotometer (Agilent Technologies, USA). For the determination of the absorption spectra, quartz cells with a 1 cm path length were used. Emission spectra and fluorescence quantum yield were obtained on a Quantaurus-QY Absolute PL quantum yield spectrometer C11347 (Hamamatsu Photonics, Japan) or on a Varian Cary Eclipse fluorescence spectrometer (Agilent Technologies, USA).

[2] = Emission spectra and fluorescence quantum yield; format: physicochemical
Description: as §1

[3] = Fluorescence lifetime; format: physicochemical
[4] = Stability of the dyes
[5] = in acetonitrile, trifluoroacetate

Structure (SMILES)	Absorption max. ([1]; in acetonitrile) [nm]	ε at absorption max. ([1]; in acetonitrile)	Emission max. ([2]; in acetonitrile) [nm]	QY (fluorescence quantum yield, Φfl) ([2]; in acetonitrile)	Stokes shift ([2]; in acetonitrile)	Absorption max. ([1]; in aq. PBS, pH 7.4) [nm]	ε at absorption max. ([1]; in aq. PBS, pH 7.4)	Emission max. ([2]; in aq. PBS, pH 7.4) [nm]	QY (fluorescence quantum yield, Φfl) ([2]; in aq. PBS, pH 7.4)	Stokes shift ([2]; in aq. PBS, pH 7.4)	other results
CCN(CC)c1ccc2c(P(=O)(OC)OC)c(-c3nc4ccccc4s3)c(=O)oc2c1 [Compound 1, Dimethyl [3-(benzo[d]thiazol-2-yl)-7-(diethylamino)-2-oxo-2H-chromen-4-yl]phosphonate]	439	24000 M⁻¹ cm⁻¹	651	0.20	212^a nm	–	–	–	–	–	fluorescence lifetime ([3]; in acetonitrile): 2.55^a ns
COP(=O)(OC)c1c(-c2nc3ccccc3s2)c(=O)oc2cc(N3CC(O)C3)ccc12 [Compound 2, Dimethyl [3-(benzo[d]thiazol-2-yl)-7-(3-hydroxyazetidin-1-yl)-2-oxo-2H-chromen-4-yl]phosphonate]	424	19000 M⁻¹ cm⁻¹	651	0.16	227^a nm	–	–	–	–	–	fluorescence lifetime ([3]; in acetonitrile): 1.99^a ns
CCN(CC)c1ccc2c(P(=O)(OC(C)(C)C)OC(C)(C)C)c(-c3nc4ccccc4s3)c(=O)oc2c1 [Compound 3, Di-tert-butyl [3-(benzo[d]thiazol-2-yl)-7-(diethylamino)-2-oxo-2H-chromen-4-yl]phosphonate]	434	39000 M⁻¹ cm⁻¹	658	0.29	224^a nm	–	–	–	–	–	fluorescence lifetime ([3]; in acetonitrile): 2.49^a ns
CCN(CC)c1ccc2c(P(=O)(O)O)c(-c3nc4ccccc4s3)c(=O)oc2c1 [Compound 4, [3-(Benzo[d]thiazol-2-yl)-7-(diethylamino)-2-oxo-2H-chromen-4-yl]phosphonic acid]	–	–	613	0.04	–	419	22000 M⁻¹ cm⁻¹	613	0.04	194^b nm	fluorescence lifetime ([3]; in acetonitrile): 2.91 ns; fluorescence lifetime ([3]; in methanol + 1% v/v trifluoroacetic acid): 1.85 ns and 0.93 ns
CCOP(=O)(c1c2ccc(=[N+](C)C)cc-2oc2cc(N(C)C)ccc12)N(C)CCC(=O)O.O=C([O-])C(F)(F)F (stereo not drawn) [Compound 10]	615	22224 M⁻¹ cm⁻¹	652	0.46	37 nm	625	13816 M⁻¹ cm⁻¹	670	0.15	45 nm	stability of solutions ([4]; protic solvents (MeOH, H2O), particularly in the presence of acids, forms compound 11): spontaneously decompose
CN(C)c1ccc2c(P(=O)([O-])CCC(=O)O)c3ccc(=[N+](C)C)cc-3oc2c1 [Compound 15, [3,6-Bis(dimethylamino)-9H-xanthenyhum-9-yl](2-carboxyethyl)phosphinate]	–	–	–	–	–	598	52094 M⁻¹ cm⁻¹ and 52100 M⁻¹ cm⁻¹	636	0.29	38^b nm	–
COP(=O)(C1=c2cc3c4c(c2Oc2c1cc1c5c2CCCN5CCC1)CCC[N+]=4CCC3)N(C(C)C)C(C)C (stereo not drawn) [Compound 17, 9-[(Diisopropylamino)(methoxy)phosphoryl]-1H,2H,3H5H,6H,7H,11H,12H,13H,15H,16H,17H-pyrido[3,2,1-ij]quinolizino[1′,9′:6,7,8]chromeno[2,3-f]quinolinium trifluoroacetate]	649	–	679	0.25	30 nm	661	–	696	0.11	35 nm	ε at absorption max. [1, 5]: 52455 M⁻¹ cm⁻¹ and 53000 M⁻¹ cm⁻¹; ε at absorption max. ([1]; in aq. PBS, pH 7.4, trifluoroacetate): 46976 M⁻¹ cm⁻¹ and 47000 M⁻¹ cm⁻¹
COP(=O)([O-])C1=c2cc3c4c(c2Oc2c1cc1c5c2CCCN5CCC1)CCC[N+]=4CCC3 [Compound 18, Methyl (1H,2H,3H,5H,6H,7H,11H,12H,13H,15H,16H,17H-pyrido[3,2,1-ij]quinolizino[1′,9′:6,7,8]chromeno[2,3-f]quinolinium-9-yl)phosphonate]	596	49565 M⁻¹ cm⁻¹ and 49600 M⁻¹ cm⁻¹	623	0.85	27 nm	630	52286 M⁻¹ cm⁻¹ and 52300 M⁻¹ cm⁻¹	666	0.17	36 nm	–
CCOP(=O)(C1=c2cc3c4c(c2Oc2c1cc1c5c2CCCN5CCC1)CCC[N+]=4CCC3)N(C)CCC(=O)O (stereo not drawn) [Compound 19, 9-[[(2-Carboxyethyl)(methyl)amino](ethoxy)phosphoryl]-1H,2H,3H,5H,6H,7H,11H,12H,13H,15H,16H,17H-pyrido[3,2,1-ij]quinolizino[1′,9′:6,7,8]chromeno[2,3-f]quinolinium trifluoroacetate]	648	29373 M⁻¹ cm⁻¹	682	0.19	34 nm	659	37214 M⁻¹ cm⁻¹	705	0.11	46 nm	–
CC[N+](CC)=c1ccc2c(P(=O)(OC)OC)c3c(oc-2c1)-c1ccc(N(C)C)cc1CC3.O=C([O-])C(F)(F)F [Compound 20, 10-(Diethylamino)-7-(dimethoxyphosphoryl)-3-(dimethylamino)-6,7-dihydro-5H-benzo[c]xanthenylium trifluoroacetate]	681	40000 M⁻¹ cm⁻¹	–	–	56 nm	693	29000 M⁻¹ cm⁻¹	754	0.02	61 nm	Emission max. [2, 5]: 737 nm and 754 nm; fluorescence lifetime ([3]; in acetonitrile): 1.50 ns
COP(=O)(OC)c1c2ccc(N(C)C)cc2[n+](C)c2cc(N(C)C)ccc12 [Compound 22, 9-(Dimethoxyphosphoryl)-3,6-bis(dimethylamino)-10-methylacridinium trifluoroacetate]	–	–	–	–	–	–	–	–	–	–	Absorption max. ([1]; in methanol): 560 nm; ε at absorption max. ([1]; in methanol): 43000 M⁻¹ cm⁻¹; Emission max. ([2]; in methanol): 620 nm; QY (fluorescence quantum yield, Φfl) ([2]; in methanol): 0.95; Stokes shift ([2]; in methanol): 60^e nm
CC(C)OP(=O)(OC(C)C)C1=C2C=CC(=[N+](C)C)C=C2C(C)(C)c2cc(N(C)C)ccc21 [Compound 24, 9-(Diisopropoxyphosphoryl)-3,6-bis(dimethylamino)-10,10-dimethyl-9,10-dihydro-anthracenylium trifluoromethanesulfonate]	–	–	–	–	–	–	–	–	–	–	Stability [4]: moderate
C=CCOP(=O)(C1=C2C=CC(=[N+](C)C)C=C2C(C)(C)c2cc(N(C)C)ccc21)N(C(C)C)C(C)C (stereo not drawn) [Compound 25, 9-[(Allyloxy)(diisopropylamino)phosphoryl]-3,6-bis(dimethylamino)-10,10-dimethyl-9,10-dihydroanthracenylium trifluoromethanesulfonate]	–	–	–	–	–	–	–	–	–	–	Stability [4]: poor
C=CCOP(=O)(C1=c2cc3c(cc2C(C)(C)c2cc4c(cc21)CCCN4CCOC)=[N+](CCOC)CCC3)N(C(C)C)C(C)C (stereo not drawn) [Compound 26, 6-[(Allyloxy)(diisopropylamino)phosphoryl]-1,11-bis(2-methoxyethyl)-13,13-dimethyl-1,2,3,4,6,8,9,10,11,13-decahydrobenzo[1,2-g:5,4-g′]diquinolin-6-ylium trifluoroacetate]	724	46700 M⁻¹ cm⁻¹	812	0.08	88 nm	734	34700 M⁻¹ cm⁻¹	860	0.05	126 nm	Stability [4]: poor
COP(=O)([C+]1c2ccc(N(C)C)cc2-c2cccc3c(N(C)C)ccc1c23)N(C(C)C)C(C)C.O=C([O-])C(F)(F)F (stereo not drawn) [Compound 28, 7-[(Diisopropylamino)(methoxy)phosphoryl]-4,10-bis(dimethylamino)-7H-benzo[de]anthracen-7-ylium trifluoroacetate]	–	–	–	–	–	644	7600 M⁻¹ cm⁻¹	782	0.04	138^b nm	Stability [4]: poor
CN(C)c1ccc2c(c1)-c1cccc3c(N(C)C)ccc(c13)C2.[O-][Cl+3]([O-])([O-])O [Compound 28d]	–	–	–	–	–	–	–	–	–	–	Absorption max. ([1]; in methanol): 646 nm; ε at absorption max. ([1]; in methanol): 23000 M⁻¹ cm⁻¹; Emission max. ([2]; in methanol): 673 nm; QY (fluorescence quantum yield, Φfl) ([2]; in methanol): 0.25
CC1=CC(C)=[N+]2C1=C(P(=O)(OC(C)C)OC(C)C)c1c(C)cc(C)n1[B-]2(F)F [Compound 29, 10-(Diisopropoxyphosphoryl)-5,5-difluoro-1,3,7,9-tetramethyl-5H-dipyrrolo[1,2-c:2′,1′-f][1,3,2]diazaborinin-4-ium-5-uide]	574	33000 M⁻¹ cm⁻¹	647	< 0.002	73^a nm	–	–	–	–	–	fluorescence emission (in words) [2]: no emission (quencher)
